According to PMC7041945, “Misfolded proteins bind and activate death receptor 5 to trigger apoptosis during unresolved endoplasmic reticulum stress” (eLife, 2020):

Legend:
[1] = system: caspase 8 in HCT116 GFP-Trap immunoprecipitates; assay: Caspase 8 activity (caspase glo 8) of GFP immunoprecipitates (beads); assay type: cell-based, Homo sapiens
Description: (§1) 15 cm dishes were seeded with 4 million HCT116 cells and allowed to recover for 18 hr prior to transfection. Samples were then transfected for 24 hr with the GFP-tagged ER trafficked protein, cytosolic GFP, or empty vector. To harvest apoptotic and living cells for each sample, all media and washes were collected. Cells were scraped in 2 ml of cold PBS and combined with the media and washes. Samples were centrifuged to pellet cells, washed with 1 ml cold PBS, and flash frozen in liquid N2 prior to lysis.
(§2) The cell pellets were resuspended in 750 μl of 30 mM HEPES pH 7.2, 150 mM NaCl, 1% Triton X-100 with 1x Roche protease inhibitor cocktail (if used subsequently for caspase glo 8 assay) or with 5x Roche protease inhibitor cocktail (if used for immunoblotting). The cells were lysed by mechanical shearing through a 25G needle for 13–15 plunges followed by incubation on ice for 30 min. The lysate was centrifuged at 2000xg for 5 min to remove debris and then incubated with 30 μl of GFP-Trap magnetic agarose beads (Chromotek gtma-20) for 4 hr at 4°C. The beads were then washed with 750 μl of lysis buffer for 10 min at 4°C for three rounds.
For measuring caspase activity, a fifth of the beads was resuspended in 40 μl of 30 mM HEPES pH 7.2, 150 mM NaCl, 1% Triton X-100. 10 μl of the resuspended mixture was incubated with 10 ul of the caspase glo 8 luminogenic substrate (Promega #PRG8200) for 45 min at RT before measuring luminescence.

[2] = system: caspase 8 in HCT116 lysates; assay: Caspase 8 activity (caspase glo 8) of cell lysates / IP inputs; assay type: cell-based, Homo sapiens; settings: for norm RLUs: rep 2, normalized by lysate quant
Description: Cells harvested from a 6-well plate were resuspended in 100 μl of lysis buffer (30 mM HEPES pH 7.2, 150 mM NaCl, 1% Triton X-100) and lysed via needle shearing (25G, 10 passes) followed by a 30 min incubation on ice. Supernatant was collected after centrifuging at 1000xg for 5 min. For the caspase activity assay, 10 μl of supernatant diluted with lysis buffer (1:25, 1:50, 1:100 to stay within linear range of luminescence measurements) was incubated with 10 μl of the luminogenic caspase glo 8 substrate (Promega #PRG8200) in a 384-white walled plate (Corning 3574) for 45 min at RT before measuring luminescence on a Spectramax-M5 plate reader.

[3] = system: DR5; assay: GFP immunoprecipitation: DR5 (FADD, caspase 8) recovered with GFP-tagged protein, Western blot; assay type: cell-based, Homo sapiens; settings: for fraction of DR5 IP'ed: GFP IP
Description: as §1, §2
For Western blots, samples were eluted by adding 35 μl of non-reducing SDS gel loading buffer (50 mM Tris-HCl (pH 6.8), 2% SDS, 0.1% bromophenol blue, 10% glycerol) and incubated for 10 min at 70°C. The beads were then magnetically removed from the eluted sample before adding DTT to a final concentration of 25 mM. The entire sample was loaded onto the gel and immunoblotted for DR5, caspase 8, and GFP, in that order.

[4] = system: HCT116 cells; assay: Annexin V (and SytoxBlue) flow cytometry for apoptosis; assay type: cell-based, Homo sapiens
Description: Cells seeded in a 6-well plate were transfected with the specified plasmid for 24 hr and harvested via trypsinization in complete media to allow a 30 min recovery at 37°C. The samples were then centrifuged at 500xg for 5 min and resuspended In 150 μl of a 1:20 dilution of Annexin V-AlexaFluor 647 conjugate (Thermo Scientific #A23204). Samples were transferred to a 96-well U-bottom plate and incubated in the dark for 15 min at RT. The distribution of apoptotic cells was determined by flow cytometry on a BD LSR II.

[5] = system: XBP1 mRNA in HCT116 cells; assay: RT-PCR for Xbp1 mRNA splicing; assay type: cell-based, Homo sapiens; settings: HCT116, 24 hr
Description: Cells were grown in 6-well plates and harvested with 0.5 ml of TRIzol reagent (Life Technologies) per manufacturer's protocol to extract RNA. […] The reverse transcription product was diluted to 200 μl with 10 mM Tris-HCl pH 8.2 and used at 1:100 dilution for subsequent RT-PCR reactions. 2 μl of cDNA was added to 0.2 μM of forward and reverse primers ([…]; Hs_XBP1_Rev: [NT]), 0.2 mM of each dNTP, 0.5 units of Taq DNA polymerase (Thermo Scientific). The reaction was set at an annealing temperature of 60.5°C with an extension time of 30 s for 26 cycles.

[6] = system: GFP (340+341); assay: qPCR of GFP transcript (expression of GFP-tagged construct); assay type: cell-based; settings: Rep 2; for avg. fold induction GFP (340+341) / fold induction GFP (340+341): relative to empty traffo

Mean ± SEM (IP) ([1]; GFPTrap beads, relative to GFP, n=2): 1.500 ± 0.1400, n=2
fold change relative to GFP (GFPTrap beads) ([1]; Rep 1): 1.64 fold change
fold change relative to GFP (GFPTrap beads) ([1]; Rep 2): 0.68 fold change
fold change relative to GFP (GFPTrap beads) ([1]; Rep 3): 1.36 fold change
GFPTrap beads RLUs ([1]; replicate 1): 115.391 RLUs
GFPTrap beads RLUs ([1]; replicate 2): 47.845 RLUs
GFPTrap beads RLUs ([1]; replicate 3): 95.69 RLUs
95% confidence interval of difference (IP) ([1]; vs. GFP): 0.1175 to 0.8825
Difference between means (IP) ([1]; vs. GFP): 0.5000 ± 0.1202
Substance: INS-GFP: GFP-tagged proinsulin expressed from plasmid
fold change in caspase 8 activity relative to GFP ([2]; input lysates GFP vs INS vs RHO, Rep1): 2.597 fold
fold change in caspase 8 activity relative to GFP ([2]; input lysates GFP vs INS vs RHO, Rep2): 2.0013 fold
avg fold change in caspase 8 activity relative to GFP ([2]; input lysates GFP vs INS vs RHO, average of Rep1 and Rep2): 2.299 fold
Mean ± SEM (lysate inputs) ([2]; lysate inputs, relative to GFP, n=2): 2.299 ± 0.2977, n=2
norm RLUs ([2]; dilution 0.025): 1827.1 RLUs
norm RLUs ([2]; dilution 0.05): 3654.19 RLUs
norm RLUs ([2]; dilution 0.1): 8264.86 RLUs
95% confidence interval of difference (lysate inputs) ([2]; vs. GFP): 0.01818 to 2.580
Difference between means (lysate inputs) ([2]; vs. GFP): 1.299 ± 0.2977
fraction of DR5 IP'ed ([3]; sheet 2018-04-13 rep 2): 0.03271
fraction of DR5 IP'ed ([3]; sheet 2018-09-20 rep 1): 0.01265
fraction IP'ed ([3]; Rep 1 (second series)): 0.03271
fraction IP'ed ([3]; Rep 2 (second series)): 0.01265
% IP'ed ([3]; average of all replicates): 2.268%
fraction IP'ed, average ([3]; average of all replicates): 0.02268
Mean ± SEM (fraction IP'ed) ([3]; unpaired t test sheet, GFP n=5, MPZ n=3, INS n=2, RHO n=2): 0.02268 ± 0.01003, n=2
95% confidence interval (difference between means) ([3]; vs. GFP, fraction IP'ed): -0.02195 to 0.04688
Difference between means ([3]; vs. GFP, fraction IP'ed, ± SEM): 0.01247 ± 0.01339
PARP cleavage and annexin V staining ([4]; HCT116, transfected 24 hr, Nt or DR5 siRNA): induced PARP cleavage and annexin V staining in a DR5-dependent manner
Mean ± SEM (siDR5), Annexin V ([4]; siDR5, N=3): 19 ± 1.7 N=3
95% confidence interval of difference, Annexin V ([4]; siDR5 vs. siNt): -25 to -8.3
Difference between means, Annexin V ([4]; siDR5 vs. siNt): -17 ± 2.9
Mean ± SEM (siNt), Annexin V ([4]; siNt, N=3): 35 ± 2.4 N=3
XBP1 mRNA splicing [5]: induced XBP1 mRNA splicing
avg. fold induction GFP (340+341) ([6]; 3 hr, mean of 3 replicates): 6059.51
fold induction GFP (340+341) ([6]; 3 hr, replicate 1): 5553.44
fold induction GFP (340+341) ([6]; 3 hr, replicate 2): 6428.23
fold induction GFP (340+341) ([6]; 3 hr, replicate 3): 6196.87
2^-(deltaCq) GFP (340+341) ([6]; 3 hr, replicate 1): 0.9383
Cq GFP (340+341) ([6]; 3 hr, replicate 1): 19.2537
Cq(sample) - avg Cq(GAPDH), GFP (340+341) ([6]; 3 hr, replicate 1): 0.0918
2^-(deltaCq) GFP (340+341) ([6]; 3 hr, replicate 2): 1.086
Cq GFP (340+341) ([6]; 3 hr, replicate 2): 19.0426
Cq(sample) - avg Cq(GAPDH), GFP (340+341) ([6]; 3 hr, replicate 2): -0.1192
2^-(deltaCq) GFP (340+341) ([6]; 3 hr, replicate 3): 1.047
Cq GFP (340+341) ([6]; 3 hr, replicate 3): 19.0955
Cq(sample) - avg Cq(GAPDH), GFP (340+341) ([6]; 3 hr, replicate 3): -0.06635
avg. fold induction GFP (340+341) ([6]; 7 hr, mean of 3 replicates): 36312.6
fold induction GFP (340+341) ([6]; 7 hr, replicate 1): 36506.4
fold induction GFP (340+341) ([6]; 7 hr, replicate 2): 31765.4
fold induction GFP (340+341) ([6]; 7 hr, replicate 3): 40666.1
2^-(deltaCq) GFP (340+341) ([6]; 7 hr, replicate 1): 6.168
Cq GFP (340+341) ([6]; 7 hr, replicate 1): 16.6754
Cq(sample) - avg Cq(GAPDH), GFP (340+341) ([6]; 7 hr, replicate 1): -2.625
2^-(deltaCq) GFP (340+341) ([6]; 7 hr, replicate 2): 5.3673
Cq GFP (340+341) ([6]; 7 hr, replicate 2): 16.8761
Cq(sample) - avg Cq(GAPDH), GFP (340+341) ([6]; 7 hr, replicate 2): -2.4242
2^-(deltaCq) GFP (340+341) ([6]; 7 hr, replicate 3): 6.871
Cq GFP (340+341) ([6]; 7 hr, replicate 3): 16.5198
Cq(sample) - avg Cq(GAPDH), GFP (340+341) ([6]; 7 hr, replicate 3): -2.781
avg. 2^-(deltaCq) GFP (340+341) ([6]; 24 hr, mean of 3 replicates): 90.4075
2^-(deltaCq) GFP (340+341) ([6]; 24 hr, replicate 1): 82.5431
Cq GFP (340+341) ([6]; 24 hr, replicate 1): 13.3376
Cq(sample) - avg Cq(GAPDH), GFP (340+341) ([6]; 24 hr, replicate 1): -6.367
2^-(deltaCq) GFP (340+341) ([6]; 24 hr, replicate 2): 92.9155
Cq GFP (340+341) ([6]; 24 hr, replicate 2): 13.1668
Cq(sample) - avg Cq(GAPDH), GFP (340+341) ([6]; 24 hr, replicate 2): -6.538
2^-(deltaCq) GFP (340+341) ([6]; 24 hr, replicate 3): 95.7639
Cq GFP (340+341) ([6]; 24 hr, replicate 3): 13.1232
Cq(sample) - avg Cq(GAPDH), GFP (340+341) ([6]; 24 hr, replicate 3): -6.581
